Format in all cases: biochemical
In one experiment the target is IMP-1 (Serratia marcescens, UniProt P52699). Description: MBL inhibition, FC-5 fluorescence assay, IMP-1. As to conditions: for IC50: FC-5 cephalosporin substrate, fluorescence, ranges of obtained pIC50, read-out: pIC50 IMP-1 (converted). The method, then: (§1) Inhibitors were tested using a panel of the clinically relevant B1 MBLs (NDM-1, VIM-1, -2 and IMP-1). Activities were assayed by monitoring the release of a fluorophore following the enzymatic breakdown of the cephalosporin FC-5 (https://pubs.acs.org/doi/abs/10.1021/jm400769b). FC-5 assays were conducted in clear bottomed 384 black well microplates (Greiner); the initial rate of reaction was assessed by monitoring the fluorescence intensity (λex=380 nm and λem=460 nm) using a Pherstar FS (BMG LabTech) plate reader. Initial rates of reaction were determined and dose-response analyses conducted in GraphPad Prism. Dose-response curves were fitted using the log(inhibitor) vs normalized response—variable slope model of GraphPad Prism 12. Each concentration point for routine screening was conducted with 4 intra-plate replicates.
Chain of IMP-1 (P52699 19-246, looked up, species assumed): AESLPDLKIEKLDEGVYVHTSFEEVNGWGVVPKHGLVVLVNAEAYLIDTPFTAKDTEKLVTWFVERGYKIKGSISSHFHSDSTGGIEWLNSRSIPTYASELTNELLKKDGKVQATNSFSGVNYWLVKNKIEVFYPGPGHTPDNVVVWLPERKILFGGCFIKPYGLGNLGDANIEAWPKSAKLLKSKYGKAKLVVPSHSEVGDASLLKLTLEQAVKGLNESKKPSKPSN

The target in the next experiment is VIM-2 (Escherichia coli, UniProt Q5U7L7). As to the kind of experiment: MBL inhibition, FC-5 fluorescence assay, VIM-2. As to conditions: for IC50: FC-5 cephalosporin substrate, ranges of obtained pIC50, read-out: pIC50 VIM-2 (converted). The method, then:
as §1

A further experiment has as its target NDM-1 (Klebsiella pneumoniae, UniProt C7C422). Description: MBL inhibition, FC-5 fluorescence assay, NDM-1. As to conditions: for IC50: FC-5 cephalosporin substrate, fluorescence, ranges of obtained pIC50, read-out: pIC50 NDM-1 (converted). The method, then:
as §1

Another experiment has as its target VIM-1 (Pseudomonas aeruginosa, UniProt A0A0F7KYQ8). Description: MBL inhibition, FC-5 fluorescence assay, VIM-1. The settings on record: for IC50: FC-5 cephalosporin substrate, ranges of obtained pIC50, read-out: pIC50 VIM-1 (converted). The method, then:
as §1

SMILES strings stand for the structures. pIC50: −log10 of the molar value. Structures can show the parent of a compound that is named as a salt. Where two headings read alike, the source gives them in different places.

Chain of NDM-1 (C7C422 29-270, looked up, species assumed): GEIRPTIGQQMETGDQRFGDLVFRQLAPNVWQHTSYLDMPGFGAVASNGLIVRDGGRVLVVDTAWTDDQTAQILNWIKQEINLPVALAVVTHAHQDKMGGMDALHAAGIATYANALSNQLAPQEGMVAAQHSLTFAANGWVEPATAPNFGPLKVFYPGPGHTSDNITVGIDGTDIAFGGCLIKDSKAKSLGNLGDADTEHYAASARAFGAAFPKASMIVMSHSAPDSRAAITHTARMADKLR

With `CC(c1cccc2c(-c3ccc(CS(C)(=O)=O)c(F)c3)c(C(=O)O)[nH]c12)n1cc(CCCNC(=N)N)oc1=O` (centres unmarked) [IC-73, 3-(3-Fluoro-4-((methylsulfonyl)methyl)phenyl)-7-(1-(5-(3-guanidinopropyl)-2-oxooxazol-3(2H)-yl)ethyl)-1H-indole-2-carboxylic acid hydrochloride], the IC50 was greater than 10 nM at IMP-1, 1 to 10 nM at VIM-2, 0.1 to 1 nM on NDM-1 and 1 to 10 nM on VIM-1.

As for `CC(c1cccc2c(-c3ccc(CS(C)(=O)=O)c(F)c3)c(C(=O)O)[nH]c12)n1cc(CCCN(C)C)oc1=O` (centres unmarked) [IC-75, 7-(1-(5-(3-(Dimethylamino)propyl)-2-oxooxazol-3(2H)-yl)ethyl)-3-(3-fluoro-4-((methylsulfonyl)methyl)phenyl)-1H-indole-2-carboxylic acid], the IC50 at IMP-1 is greater than 10 nM; on VIM-2, 1 to 10 nM; at NDM-1, 0.1 to 1 nM; at VIM-1, 1 to 10 nM.

In the case of `CC(c1cccc2c(-c3ccc(CS(C)(=O)=O)c(F)c3)c(C(=O)O)[nH]c12)n1cc(CCC[N+](C)(C)C)oc1=O` (centres unmarked) [IC-76, 3-(3-(1-(2-carboxy-3-(3-fluoro-4-((methylsulfonyl)methyl)phenyl)-1H-indol-7-yl)ethyl)-2-oxo-2,3-dihydrooxazol-5-yl)-N,N,N-trimethylpropan-1-aminium], the negative-log IC50 (pIC50) at IMP-1 was less than 8.00; against VIM-2 (pIC50 VIM-2, FC-5 cephalosporin substrate, ranges of obtained pIC50) it was less than 8.00; on NDM-1, 8.00 to 9.00; on VIM-1 (pIC50 VIM-1, FC-5 cephalosporin substrate, ranges of obtained pIC50), less than 8.00.

As to `CC(c1cccc2c(-c3ccc(CS(C)(=O)=O)c(F)c3)c(C(=O)O)[nH]c12)n1cc(CO)oc1=O` (centres unmarked) [IC-78, 3-(3-Fluoro-4-((methylsulfonyl)methyl)phenyl)-7-(1-(5-(hydroxymethyl)-2-oxooxazol-3(2H)-yl)ethyl)-1H-indole-2-carboxylic acid], the IC50 at IMP-1 is greater than 10 nM; at VIM-2, greater than 10 nM; on NDM-1, 1 to 10 nM; on VIM-1, greater than 10 nM.

Regarding `CC(c1cccc2c(-c3ccc(CS(C)(=O)=O)c(F)c3)c(C(=O)O)[nH]c12)n1cc(CN2CC[C@H](N)C2)oc1=O` (stereo partly drawn) [IC-81, 7-[1-[5-[[(3S)-3-Aminopyrrolidin-1-yl]methyl]-2-oxo-oxazol-3-yl]ethyl]-3-[3-fluoro-4-(methylsulfonylmethyl)phenyl]-1H-indole-2-carboxylic acid], the IC50 on IMP-1 is greater than 10 nM; at VIM-2, 1 to 10 nM; on NDM-1, 0.1 to 1 nM; at VIM-1, 1 to 10 nM.

As to `CC(c1cccc2c(-c3ccc(CS(C)(=O)=O)c(F)c3)c(C(=O)O)[nH]c12)n1cc(CN2CC[C@@H](N)C2)oc1=O` (stereo partly drawn) [IC-82, 7-[1-[5-[[(3R)-3-Aminopyrrolidin-1-yl]methyl]-2-oxo-oxazol-3-yl]ethyl]-3-[3-fluoro-4-(methylsulfonylmethyl)phenyl]-1H-indole-2-carboxylic acid], the IC50 at IMP-1 was greater than 10 nM; at VIM-2, 0.1 to 1 nM; on NDM-1 it was 0.1 to 1 nM; at VIM-1 it was 1 to 10 nM.

Turning to `CS(=O)(=O)Cc1ccc(-c2c(C(=O)O)[nH]c3c(COCc4ccc(CN)cc4)cccc23)cc1F` [IC-85, 7-(((4-(Ammoniomethyl)benzyl)oxy)methyl)-3-(3-fluoro-4-((methylsulfonyl)methyl)phenyl)-1H-indole-2-carboxylate], the IC50 at IMP-1 is greater than 10 nM; at VIM-2 it was greater than 10 nM; at NDM-1, 0.1 to 1 nM; at VIM-1 it was greater than 10 nM.

As to `CC(OCc1cnn[nH]1)c1cccc2c(-c3ccc(CS(C)(=O)=O)c(F)c3)c(C(=O)O)[nH]c12` (centres unmarked) [IC-91, 7-(1-((1H-1,2,3-triazol-5-yl)methoxy)ethyl)-3-(3-fluoro-4-((methylsulfonyl)methyl)phenyl)-1H-indole-2-carboxylic acid], the IC50 at IMP-1, at VIM-2, at NDM-1 and at VIM-1 was greater than 10 nM each time.

(Values after patent publication US20240246913A1, “2-CARBOXYL-INDOLE INHIBITORS OF METALLO-BETA-LACTAMASES” (Oxford University Innovation Limited, priority 2021, published 2024).)
